Source: patent US9730445B2, “Herbicidal compositions comprising 4-amino-3-chloro-5-fluoro-6-(4-chloro-2-fluoro-3-methoxyphenyl) pyridine-2-carboxylic acid or a derivative thereof and fungicides” (DOW AGROSCIENCES LLC, priority 2013, dated 2017)

How the values were obtained:
Experiment in all cases: Postemergence foliar-applied weed control, direct-seeded rice (greenhouse)
[1] = tested on: CYPIR; assay type: in vivo, Cyperus iria L. (rice flatsedge)
Procedure: (§1) Seeds or nutlets of the desired test plant species were planted in a soil matrix prepared by mixing aloam or sandy loam soil (e.g., 28.6 percent silt, 18.8 percent clay, and 52.6 percent sand, with a pH of about 5.8 and an organic matter content of about 1.8 percent) and calcareous grit in an 80 to 20 ratio. The soil matrix was contained in plastic pots with a volume of 1 quart and a surface area of 83.6 square centimeters (cm^2). […] The plants were grown for 8-22 days in a greenhouse with an approximate 14 hour (h) photoperiod which was maintained at about 29° C. during the day and 26° C. during the night. Nutrients (Peters Excel® 15-5-15 5-Ca 2-Mg and iron chelate) were applied in the irrigation solution as needed and water was added on a regular basis. Supplemental lighting was provided with overhead metal halide 1000-Watt lamps as necessary. The plants were employed for testing when they reached the first through fourth true leaf stage.
(§2) Treatments consisted of the acid or esters of 4-amino-3-chloro-5-fluoro-6-(4-chloro-2-fluoro-3-methoxy-phenyl)pyridine-2-carboxylic acid (Compound A), each formulated as an SC (suspension concentrate), and various fungicidal components alone and in combination. Forms of compound A were applied on an acid equivalent basis.
(§3) For treatments comprised of formulated compounds, measured amounts of compounds were placed individually in 25 mL glass vials and diluted in a volume of 1.25% volume per volume (v/v) Agri-Dex® crop oil concentrate to obtain 12× stock solutions. […] Application solutions were prepared by adding an appropriate amount of each stock solution (e.g., 1 mL) and diluted to the appropriate final concentrations with the addition of […] of an aqueous mixture of 1.25% (v/v) crop oil concentrate so that the final spray solutions contained 1.25+/−0.05% (v/v) crop oil concentrate.
(§4) For treatments comprised of technical compounds, weighed amounts can be placed individually in 25 mL glass vials and dissolved in a volume of 97:3 volume per volume (v/v) acetone/dimethyl sulfoxide (DMSO) to obtain 12× stock solutions. […] When technical materials are used, the concentrated stock solutions can be added to the spray solutions so that the final acetone and DMSO concentrations of the application solutions are 16.2% and 0.5%, respectively.
(§5) As required, additional water and/or 97:3 v/v acetone/DMSO was added to individual application solutions so that the final acetone and DMSO concentrations of the application solutions being compared were 8.1% and 0.25%, respectively
(§6) All stock solutions and applications solutions were visually inspected for compound compatibility prior to application. Spray solutions were applied to the plant material with an overhead Mandel track sprayer equipped with 8002E nozzles calibrated to deliver 187 L/ha over an application area of 0.503 square meters (m^2) at a spray height of 18 to 20 inches (46 to 50 cm) above average plant canopy height. Control plants were sprayed in the same manner with the solvent blank.
(§7) The treated plants and control plants were placed in a greenhouse as described above and watered by sub-irrigation to prevent wash-off of the test compounds. After approximately 3 weeks, the condition of the test plants as compared with that of the untreated plants was determined visually and scored on a scale of 0 to 100 percent where 0 corresponds to no injury or growth inhibition and 100 corresponds to complete kill.
(§8) Colby's equation was used to determine the herbicidal effects expected from the mixtures (Colby, S. R. Calculation of the synergistic and antagonistic response of herbicide combinations. Weeds 1967, 15, 20-22.).
(§9) The following equation was used to calculate the expected activity of mixtures containing two active ingredients, A and B: Expected=A+B−(A×B/100)

[2] = tested on: BRAPP; assay type: in vivo
Source text: (§10) Seeds or nutlets of the desired test plant species were planted in a soil matrix prepared by mixing aloam or sandy loam soil (e.g., 28.6 percent silt, 18.8 percent clay, and 52.6 percent sand, with a pH of about 5.8 and an organic matter content of about 1.8 percent) and calcareous grit in an 80 to 20 ratio. The soil matrix was contained in plastic pots with a volume of 1 quart and a surface area of 83.6 square centimeters (cm^2). When required to ensure good germination and healthy plants, a fungicide treatment and/or other chemical or physical treatment was applied. The plants were grown for 8-22 days in a greenhouse with an approximate 14 hour (h) photoperiod which was maintained at about 29° C. during the day and 26° C. during the night. Nutrients (Peters Excel® 15-5-15 5-Ca 2-Mg and iron chelate) were applied in the irrigation solution as needed and water was added on a regular basis. Supplemental lighting was provided with overhead metal halide 1000-Watt lamps as necessary. The plants were employed for testing when they reached the first through fourth true leaf stage.
as §2
(§11) Treatment requirements were calculated based upon the rates being tested, the concentration of active ingredient or acid equivalent in the formulation and a 12 milliliter (mL) application volume at a rate of 187 liters per hectare (L/ha).
as §3, §4, §5, §6
(§12) The treated plants and control plants were placed in a greenhouse as described above and watered by sub-irrigation to prevent wash-off of the test compounds. After approximately 3 weeks, the condition of the test plants as compared with that of the untreated plants was determined visually and scored on a scale of 0 to 100 percent where 0 corresponds to no injury or growth inhibition and 100 corresponds to complete kill. […]

[3] = tested on: DIGSA; assay type: in vivo, Digitaria sanguinalis (L.) Scop. (large crabgrass)
Source text: as §10, §2, §11, §3, §4, §5, §6, §12

[4] = tested on: IPOHE; assay type: in vivo, Ipomoea hederacea (L.) Jacq. (ivyleaf morningglory)
Procedure: as §1, §2, §3, §4, §5, §6, §7, §8, §9

[5] = tested on: CYPES; assay type: in vivo, Cyperus esculentus L. (yellow nutsedge)
Procedure: as §1, §2, §3, §4, §5, §6, §12

[6] = tested on: LEFCH; assay type: in vivo, Leptochloa chinensis (L.) Nees (Chinese sprangletop); settings: 21 DAA
Procedure: as §1, §2, §3, §4, §5, §6, §7, §8, §9

[7] = tested on: ECHCO; assay type: in vivo, Echinochloa colonum (L.) LINK (junglerice); settings: 21 DAA
Source text: as §10, §2, §11, §3, §4, §5, §6, §12

[8] = tested on: ECHCG; assay type: in vivo, Echinochloa crus-galli (L.) P. Beauv. (barnyardgrass)
Procedure: as §1, §2, §3, §4, §5, §6, §7, §8, §9

[9] = r10-12 ester 8/16/32 g ae/ha alone, r13-14 isoprothiolane 266/533 g ai/ha alone, r15-20 ester 8/16/32 at each of 266, 533
[10] = r9-11 ester 8/16/32 g ae/ha alone, r12-14 hexaconazole 25/50/100 g ai/ha alone, r15-23 ester 8/16/32 at each of 25, 50, 100
[11] = r29-30 ester 8/16 g ae/ha alone, r31-33 hexaconazole 25/50/100 g ai/ha alone, r34-39 ester 8/16 at each of 25, 50, 100
[12] = r38-39 ester 8/16 g ae/ha alone, r40 isotianil 380 g ai/ha alone, r41-42 ester 8/16 + 380

CO/C=C(/C(=O)OC)c1ccccc1Oc1cc(Oc2ccccc2C#N)ncn1 [Azoxystrobin, methyl (2E)-2-{2-[6-(2-cyanophenoxy)pyrimidin-4-yloxy]phenyl}3-methoxyacrylate, reference compound]
0%: Visual Weed Control (%) - 22 DAA CYPIR Obs ([1]; 22 DAA, r22-23 ester 16/32 g ae/ha alone, r24-26 azoxystrobin 62.5/125/250 g ai/ha alone, r27-32 ester 16/32 at each of 62.5, 125, 250) | Visual Weed Control (%) - 22 DAA BRAPP Obs ([2]; 22 DAA, r38-40 ester 8/16/32 g ae/ha alone, r41-42 azoxystrobin 125/250 g ai/ha alone, r43-48 ester 8/16/32 at each of 125, 250) | Visual Weed Control (%) - 21 DAA DIGSA Obs ([3]; 21 DAA, r9-11 acid 5.3/10.6/21.2 g ae/ha alone, r12 azoxystrobin 250 g ai/ha alone, r13-15 acid 5.3/10.6/21.2 + 250) | Visual Weed Control (%) - 21 DAA DIGSA Obs ([3]; 21 DAA, r10-12 ester 4.38/8.75/17.5 g ae/ha alone, r13 azoxystrobin 250 g ai/ha alone, r14-16 ester 4.38/8.75/17.5 + 250) | Visual Weed Control (%) - 21 DAA IPOHE Obs ([4]; r9-11 acid 5.3/10.6/21.2 g ae/ha alone, r12 azoxystrobin 250 g ai/ha alone, r13-15 acid 5.3/10.6/21.2 + 250) | Visual Weed Control (%) - 21 DAA IPOHE Obs ([4]; r10-12 ester 4.38/8.75/17.5 g ae/ha alone, r13 azoxystrobin 250 g ai/ha alone, r14-16 ester 4.38/8.75/17.5 + 250)

O=C1CCc2cccc3c2N1CC3 [Pyroquilon, 1,2,5,6-tetrahydropyrrolo[3,2,1-ij]quinolin-4-one, reference compound]
0%: Visual Weed Control (%) - 21 DAA CYPIR Obs ([1]; 21 DAA, r23-24 ester 16/32 g ae/ha alone, r25 pyroquilon 925 g ai/ha alone, r26-27 ester 16/32 + 925) | Visual Weed Control (%) - 21 DAA CYPES Obs ([5]; r11-12 ester 8/16 g ae/ha alone, r13 pyroquilon 925 g ai/ha alone, r14-15 ester 8/16 + 925)

CC(C)OC(=O)C(C(=O)OC(C)C)=C1SCCS1 [Isoprothiolane, diisopropyl 1,3-dithiolan-2-ylidenemalonate, reference compound]
0%: Visual Weed Control (%) - 21 DAA CYPIR Obs ([1]; 21 DAA, r26-27 ester 16/32 g ae/ha alone, r28-29 isoprothiolane 266/533 g ai/ha alone, r30-33 ester 16/32 at each of 266, 533) | Visual Weed Control (%) - 21 DAA CYPES Obs [5, 9] | Visual Weed Control (%) - 21 DAA LEFCH Obs [6, 9]

CCCCC(O)(Cn1cncn1)c1ccc(Cl)cc1Cl (racemic) [Hexaconazole, reference compound]
0%: Visual Weed Control (%)—21 DAA CYPIR Obs ([1]; 21 DAA, r45 ester 8 g ae/ha alone, r46-48 hexaconazole 25/50/100 g ai/ha alone, r49-51 ester 8 + 25/50/100) | Visual Weed Control (%)—21 DAA LEFCH Obs [6, 10] | Visual Weed Control (%)—21 DAA BRAPP Obs [2, 11] | Visual Weed Control (%)—21 DAA ECHCO Obs [7, 10] | Visual Weed Control (%)—21 DAA IPOHE Obs [4, 11] | Visual Weed Control (%)—21 DAA ECHCG Obs [8, 10]

N#Cc1ccccc1NC(=O)c1snc(Cl)c1Cl [Isotianil, 3,4-dichloro-2′-cyano-1,2-thiazole-5-carboxanilide, reference compound]
0%: Visual Weed Control (%)—21 DAA LEFCH Obs [6, 12] | Visual Weed Control (%)—20 DAA BRAPP Obs ([2]; 20 DAA, r9-11 ester 8/16/32 g ae/ha alone, r12 isotianil 200 g ai/ha alone, r13-15 ester 8/16/32 + 200) | Visual Weed Control (%)—21 DAA BRAPP Obs [2, 12] | Visual Weed Control (%)—20 DAA DIGSA Obs ([3]; 20 DAA, r21-23 ester 8/16/32 g ae/ha alone, r24-25 isotianil 100/200 g ai/ha alone, r26-31 ester 8/16/32 at each of 100, 200) | Visual Weed Control (%)—21 DAA DIGSA Obs ([3]; 21 DAA, r38-39 ester 8/16 g ae/ha alone, r40 isotianil 380 g ai/ha alone, r41-42 ester 8/16 + 380) | Visual Weed Control (%)—21 DAA ECHCO Obs [7, 12] | Visual Weed Control (%)—21 DAA ECHCG Obs [8, 12]
